# Measurements taken from BindingDB's records for doi:10.7270/Q2BR8QM3 (Nmmlsc, 2008).
# Structures can show the parent of a compound that is named as a salt.
# Target: T1, Bcl-2-like protein 2 (Homo sapiens, UniProt Q92843)
# T1 sequence (Q92843 whole entry): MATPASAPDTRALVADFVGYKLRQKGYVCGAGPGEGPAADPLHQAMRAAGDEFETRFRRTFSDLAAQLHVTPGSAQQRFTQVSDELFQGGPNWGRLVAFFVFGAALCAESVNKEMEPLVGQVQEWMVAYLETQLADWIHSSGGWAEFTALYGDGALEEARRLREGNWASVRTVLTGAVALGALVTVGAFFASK
# Experiment: modulators of Bim-Bcl-W protein interaction, dose response, biochemical, multiplexed, bead-based flow cytometry, fluorescence (AID 1330)
# Conditions: not given
row,EC50 [µM],Compound
1,9.95,CN1CCc2cccc3c2[C@@H]1Cc1ccc(O)c(O)c1-3
2,0.49,COc1cccc(CN=Nc2nn3cnnc3c3ccccc23)c1O
3,22.1,CCC(/C=C1\Sc2ccc(OC)cc2N1CCO)=C\c1sc2ccc(OC)cc2[n+]1CCO
4,0.33,Cc1nc2ncccn2c1-c1csc(Nc2ccc(O)cc2)n1
5,5.13,CCN(CC)S(=O)(=O)c1cccc(C(=O)NN=Cc2ccc(O)c(O)c2O)c1
6,1.81,COCCN=c1scc(-c2ccco2)n1N=Cc1ccc(O)c(O)c1O
7,6.03,"O=C(NCc1ccccc1)c1ccc2nc(-c3ccco3)c(-c3ccco3)nc2c1 [2,3-bis(furan-2-yl)-N-(phenylmethyl)quinoxaline-6-carboxamide]"
8,7.22,"O=C(NCc1ccccn1)c1ccc2nc(-c3ccco3)c(-c3ccco3)nc2c1 [2,3-di-2-furyl-N-(pyridin-2-ylmethyl)quinoxaline-6-carboxamide]"
9,10.1,"COc1ccc(CC(=O)Nc2ccc(-c3nc4cc(C)ccc4o3)c(O)c2)cc1OC [2-(3,4-dimethoxyphenyl)-N-[(4Z)-3-keto-4-(5-methyl-3H-1,3-benzoxazol-2-ylidene)cyclohexa-1,5-dien-1-yl]acetamide]"
10,3.96,Cc1cc(N)ccc1N1CCCC1 [3-methyl-4-(1-pyrrolidinyl)aniline;hydrochloride]
11,3.25,"COc1cc(C2Nc3cccc4cccc(c34)N2)cc(OC)c1O [4-(2,3-dihydro-1H-perimidin-2-yl)-2,6-dimethoxyphenol]"
12,3.31,"COc1cc(/C=C2\CC/C(=C\c3cc(OC)c(O)c(OC)c3)C2=O)cc(OC)c1O [(2E,5E)-2,5-bis[(4-hydroxy-3,5-dimethoxyphenyl)methylidene]cyclopentan-1-one]"
13,19,CN1CCc2cccc3c2[C@H]1Cc1ccc(O)c(O)c1-3 [APOMORPHINE HYDROCHLORIDE]
14,8.37,O=C1c2ccccc2-c2onc3ccc(NCc4ccco4)c1c23 [MLS000080234]
15,4.93,CCOC(=O)C1CCN(C(=O)Nc2ccc3nc(-c4ccco4)c(-c4ccco4)nc3c2)CC1 [MLS000113285]
16,3.52,O=[N+]([O-])c1ccc(N=NCc2ccc(O)c(O)c2O)c(S(=O)(=O)N2CCOCC2)c1 [MLS000336720]
17,4.76,O=C1C=CC(C=NNC(=O)C(=Cc2ccc([N+](=O)[O-])cc2)NC(=O)c2ccccc2)C(O)=C1O (stereo unspecified) [MLS000530401]
18,1.56,COc1ccc2c3c(cccc13)N(C)N=C2C [MLS000554700]

# Same assay, conditions: inactive by the depositor's call
row,Compound,EC50 [µM]
1,CCN(CC)c1ccc(-c2nn3c(-c4cccnc4)nnc3s2)cc1,12
2,CCOCCCn1c(N)c(C(=O)Nc2sc3c(c2C(=O)OC)CCCC3)c2nc3ccccc3nc21,1.8
3,CCN1C(=O)/C(=C/C=C2\C=CN(CC)c3ccccc32)SC1=S,15.9
4,O=S1(=O)N=C(N(CCO)N=C/C=C/c2ccccc2)c2ccccc21,20.6
5,COc1ccc(-n2c(=O)c3ccccc3c3ccccc3c2=O)c(OC)c1,16.3
6,COc1cc2nc(=S)n(CCCN3CCOCC3)c(N)c2cc1OC,9.25
7,O=C(NC1=C(Nc2ccc(Cl)cc2)C(=O)c2ccccc2C1=O)c1ccccc1,10.1
8,CCOC(=O)c1c(NC(C)=O)sc2c(O)c(Br)cc(Br)c12,40.3
9,O=C(Nc1ccc2nc(-c3ccco3)c(-c3ccco3)nc2c1)N1CCN(c2ccccn2)CC1,14.9
10,O=C(c1ccccc1)c1ccc2nc(-c3ccco3)c(-c3ccco3)nc2c1,14.8
11,COc1cc2nc(=S)[nH]c(NCCCOC(C)C)c2cc1OC,9
12,"Cc1ccc(CNc2ccc3c(c2)OCO3)c(C)c1 [1,3-benzodioxol-5-yl(2,4-dimethylbenzyl)amine]",44.2
13,"COCCNC(=S)Nc1cc(OC)c(OC)cc1C#N [1-(2-cyano-4,5-dimethoxy-phenyl)-3-(2-methoxyethyl)thiourea]",14.5
14,"COc1ccc2nc(-c3ccco3)c(-c3ccco3)nc2c1 [2,3-di-2-furyl-6-methoxyquinoxaline]",28.3
15,"O=C(Nc1ccccc1)c1ccc2nc(-c3ccco3)c(-c3ccco3)nc2c1 [2,3-di-2-furyl-N-phenyl-6-quinoxalinecarboxamide]",18.2
16,"Cc1cc(OCc2cn3cccnc3n2)ccc1Cl [2-[(4-chloranyl-3-methyl-phenoxy)methyl]imidazo[1,2-a]pyrimidine]",19.8
17,"O=C(CSc1ccc2nnc(-c3ccccn3)n2n1)Nc1nccs1 [2-[[3-(2-pyridinyl)-[1,2,4]triazolo[4,3-b]pyridazin-6-yl]thio]-N-(2-thiazolyl)acetamide]",14.1
18,Cc1ccc(-c2cc(-c3ccc(C)o3)nc(N)c2C#N)cc1 [2-amino-6-(5-methylfuran-2-yl)-4-(4-methylphenyl)pyridine-3-carbonitrile],18.5
19,"O=C(/C=C/c1ccccc1Cl)c1ccccc(=O)c1O [3-[(E)-3-(2-chlorophenyl)prop-2-enoyl]-2-oxidanyl-cyclohepta-2,4,6-trien-1-one]",11.8
20,CCOc1cccc(CNc2ccc(O)cc2)c1OCc1ccc(Cl)cc1 [4-[[2-[(4-chlorophenyl)methoxy]-3-ethoxyphenyl]methylamino]phenol],10.2
21,"CCc1ccc(/C=C/C(=O)c2cc(Br)ccc(=O)c2O)cc1 [5-bromo-3-[(E)-3-(4-ethylphenyl)-1-oxoprop-2-enyl]-2-hydroxy-1-cyclohepta-2,4,6-trienone]",52.1
22,Cc1ccc(-c2ccc(/C=C3\SC(N4CCOCC4)=NC3=O)o2)cc1 [(5Z)-5-[[5-(4-methylphenyl)-2-furanyl]methylidene]-2-(4-morpholinyl)-4-thiazolone],89
23,O=C(/C=C/c1ccc(-c2ccccc2)o1)c1ccccc1 [(E)-1-phenyl-3-(5-phenyl-2-furanyl)-2-propen-1-one],13.9
24,O=C(/C=C\c1ccc(-c2ccccc2)o1)c1ccccc1 [(Z)-1-phenyl-3-(5-phenyl-2-furanyl)-2-propen-1-one],10.6
25,"COc1cc(C2Nc3cccc4cccc(c34)N2)ccc1OC(C)=O [Acetic acid 4-(2,3-dihydro-1H-perimidin-2-yl)-2-methoxy-phenyl ester]",11.5
26,COC(=O)CSc1ncnc2c1sc1nc(-c3ccco3)c3c(c12)CC(C)(C)OC3 [MLS000039339],34
27,CCOc1cc(C2Nc3cccc4cccc(c34)N2)ccc1O [MLS000068595],31.7
28,Cc1cc2n(c1)CCn1c(C)ccc1-2 [MLS000104384],13.6
29,Clc1nc(NCc2cccnc2)nc(N2CCOCC2)n1 [MLS000121154],18.5
30,COCCCn1c(N)c(C(=O)Nc2sc3c(c2C(=O)OC)CCCC3)c2nc3ccccc3nc21 [MLS000595323],2.34

# Results, then the molecule that gave them:
row,EC50 [µM],Compound
1,8.71,"Cc1nc2ncccn2c1-c1csc(Nc2ccccc2)n1 [4-(2-methyl-3-imidazo[1,2-a]pyrimidinyl)-N-phenyl-2-thiazolamine]"
2,8.51,Cc1ccc(C)c(/C=C/C(=O)c2ccccc(=O)c2O)c1
3,7.58,Cc1cc(-c2nnc3n2N=C(c2ccc(-c4ccccc4)cc2)CS3)[nH]n1 [MLS000082991]
4,6.62,c1coc(C2=Nc3cccc4cccc(c34)N2)c1 [2-(2-furanyl)-1H-perimidine]
5,6.38,"Cc1ccc(/C=C/C2=Cc3c(sc(NC(=O)CSc4nnc(N)[nH]4)c3C#N)C(C)(C)C2)o1 [2-[(5-azanyl-1H-1,2,4-triazol-3-yl)sulfanyl]-N-[3-cyano-7,7-dimethyl-5-[(E)-2-(5-methylfuran-2-yl)ethenyl]-6H-1-benzothiophen-2-yl]ethanamide]"
6,6.18,"Cc1cc(C)nc(SCc2cc(=O)c(OC(=O)c3ccc(Cl)c([N+](=O)[O-])c3)co2)n1 [4-chloro-3-nitrobenzoic acid [6-[[(4,6-dimethyl-2-pyrimidinyl)thio]methyl]-4-oxo-3-pyranyl] ester]"
7,6.13,CCOc1cccc(CNc2ccc(O)cc2)c1OCc1ccccc1Cl [MLS000580486]
8,4.71,"CCN(CC)c1ccc(Nc2nc(N3CCOCC3)c3ccccc3n2)cc1 [4-N,4-N-diethyl-1-N-(4-morpholin-4-ylquinazolin-2-yl)benzene-1,4-diamine]"
9,4.62,"COc1cc2nc(=S)[nH]c(NCC3CCCO3)c2cc1OC (stereo unspecified) [6,7-dimethoxy-4-(2-oxolanylmethylamino)-1H-quinazoline-2-thione]"
10,4.34,Cc1ccc(NC2=C(NC(=O)c3ccccc3)C(=O)c3ccccc3C2=O)cc1Cl [MLS000392290]
11,4.24,"COc1ccc(C2=Nn3c(nnc3-c3ccco3)SC2)cc1OC [6-(3,4-Dimethoxy-phenyl)-3-furan-2-yl-7H-[1,2,4]triazolo[3,4-b][1,3,4]thiadiazine]"
12,3.86,COCCNc1[nH]c(=S)nc2cc(OC)c(OC)cc12
13,3.67,"CN(N=C/C=C/c1ccccc1)C1=NS(=O)(=O)c2ccccc21 [(1E,2E)-3-phenylacrylaldehyde (1,1-dioxido-1,2-benzisothiazol-3-yl)(methyl)hydrazone]"
14,3.56,Cc1ccc(-c2ccc(/C=C/C(=O)c3ccccc3)o2)cc1
15,2.67,CCOC(=O)c1ccc(Nc2nc(C(=O)OCC)nc3ccccc23)cc1
16,2.31,CCOc1ccccc1CNc1ccc(O)cc1
17,2.26,"CC1N(C)c2cccc3cccc(c23)N1C [1,2,3-trimethyl-2,3-dihydro-1H-perimidine]"
18,2.2,CCOCCCNc1nc(S)nc2cc(OC)c(OC)cc12
19,1.47,"COc1cc(CNc2ccc3[nH]c(=O)[nH]c3c2)cc(Br)c1OCC(=O)NC(C)(C)C [2-[2-bromo-6-methoxy-4-[[(2-oxo-1,3-dihydrobenzimidazol-5-yl)amino]methyl]phenoxy]-N-tert-butylacetamide]"
20,1.02,Cc1ccc(C(=O)/C=C/c2ccc(-c3ccc(C)cc3)o2)cc1 [1-p-Tolyl-3-(5-p-tolyl-furan-2-yl)-propenone]
21,0.17,CCN(CC)c1ccc(NC2=C(Cl)C(=O)c3ccccc3C2=O)cc1 [2-chloro-3-{[4-(diethylamino)phenyl]amino}naphthoquinone]
22,0.05,CN(C)c1ncc(C2=C(Cl)C(=O)C(N3CCCC3)=C(Cl)C2=O)s1
23,0.04,CN1CCN(C2=C(Cl)C(=O)C(c3cnc(N4CCCCC4)s3)=C(Cl)C2=O)CC1
